Test results published in patent US20260042764A1, “COMPOSITIONS AND METHODS FOR INHIBITION OF KRAS” (TheRas, Inc., priority 2022, published 2026).

Tests used:
[1] = target: T1, Avi-KRAS G12V (2-169) GTP/RAF1 RBD-3xFLAG (51-131) (Homo sapiens, UniProt P01116, G12V); assay: Raf1-KRAS G12V-GTP disruption HTRF assay (Biological Example 3); type: binding; details: KRAS G12V, GTP-loaded
T1 construct: Avi-KRAS G12V (2-169)
In short: (§1)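 Each KRAS-GTP/RAF1 RBD complex at 50 nM, with 75 nM 3xFLAG-RAF1 RBD (51-131)-Avi, in 50 mM Tris pH 7.5, 100 mM NaCl, 5 mM MgCl2, 0.1% BSA, 0.01% Tween 20, 10% DMSO. Compounds titrated from 30 μM, 10-point 3x series; 1 h at room temperature with shaking. HTRF read, activity as percent of DMSO.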

[2] = target: T2, Avi-KRAS WT (1-169) GppNHp/RAF1 RBD-3xFLAG (52-151) (Homo sapiens, UniProt P01116); assay: Raf1-KRAS WT-GppNHP disruption HTRF assay (Biological Example 1); type: binding
T2 construct: Avi-KRAS WT (1-169)
In short: (§2)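 Using HTRF, the loss of KRAS–effector RAF1 complex was quantified in 50 mM Tris pH 7.5 buffer with 100 mM NaCl and 0.1% BSA. The protein step and reagent step ran 1 h each at room temperature. Activity normalized with DMSO taken as 100%.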

[3] = test system: SW620 cells (KRAS G12V); assay: Cell-based pERK HTRF assay in SW620 cell (Biological Example 4)
In short: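 In SW620 cells grown in RPMI with 10% FBS, a 4 h compound treatment (0.25% DMSO, 9-point curve from 1 μM) preceded lysis. Phospho-ERK levels were then read by time-resolved FRET at 615 nm emission.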

[4] = target: T3, Avi-KRAS G12V (1-169) GppNHp/RAF1 RBD-3xFLAG (52-151) (Homo sapiens, UniProt P01116, G12V); assay: Raf1-KRAS G12V-GppNHP disruption HTRF assay (Biological Example 1); type: binding
T3 construct: Avi-KRAS G12V (1-169)
In short: as §2

[5] = target: T4, Avi-KRAS G12R (1-169) GppNHp/RAF1 RBD-3xFLAG (52-151) (Homo sapiens, UniProt P01116, G12R); assay: Raf1-KRAS G12R-GppNHP disruption HTRF assay (Biological Example 1); type: binding
T4 construct: Avi-KRAS G12R (1-169)
In short: as §2

[6] = target: T5, Avi-KRAS G12D (2-169) GTP/RAF1 RBD-3xFLAG (51-131) (Homo sapiens, UniProt P01116, G12D); assay: Raf1-KRAS G12D-GTP disruption HTRF assay (Biological Example 3); type: binding; details: KRAS G12D, GTP-loaded
T5 construct: Avi-KRAS G12D (2-169)
In short: as §1

[7] = KRAS WT, GppNHp-loaded, class symbols
[8] = Homo sapiens, SW-620, SW620 (KRAS G12V) cells
[9] = Homo sapiens, SW-620, SW620 (KRAS G12V) cells, pERK HTRF, class symbols
[10] = KRAS G12V, GppNHp-loaded, class symbols
[11] = KRAS G12R, GppNHp-loaded, class symbols
[12] = Homo sapiens, SW-620, SW620 (KRAS G12V) cells, pERK HTRF
[13] = SW620 (KRAS G12V) cells, pERK HTRF

T3 sequence (P01116 1-169 isoform P01116-2 G12V): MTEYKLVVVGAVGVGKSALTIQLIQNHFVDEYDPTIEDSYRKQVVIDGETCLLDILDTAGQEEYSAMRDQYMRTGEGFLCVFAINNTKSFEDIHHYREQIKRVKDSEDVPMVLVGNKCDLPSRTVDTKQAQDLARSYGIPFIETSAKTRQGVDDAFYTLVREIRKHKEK
T4 sequence (P01116 1-169 isoform P01116-2 G12R): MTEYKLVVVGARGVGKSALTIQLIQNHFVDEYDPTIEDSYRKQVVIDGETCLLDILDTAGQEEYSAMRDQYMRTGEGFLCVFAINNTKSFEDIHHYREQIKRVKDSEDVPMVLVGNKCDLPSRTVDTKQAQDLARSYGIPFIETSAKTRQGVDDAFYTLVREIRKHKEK
T1 sequence (P01116 2-169 isoform P01116-2 G12V): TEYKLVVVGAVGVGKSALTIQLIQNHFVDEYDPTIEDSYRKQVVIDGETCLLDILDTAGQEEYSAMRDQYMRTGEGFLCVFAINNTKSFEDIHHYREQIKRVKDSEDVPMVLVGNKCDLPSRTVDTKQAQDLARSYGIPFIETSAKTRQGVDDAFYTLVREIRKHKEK
T5 sequence (P01116 2-169 isoform P01116-2 G12D): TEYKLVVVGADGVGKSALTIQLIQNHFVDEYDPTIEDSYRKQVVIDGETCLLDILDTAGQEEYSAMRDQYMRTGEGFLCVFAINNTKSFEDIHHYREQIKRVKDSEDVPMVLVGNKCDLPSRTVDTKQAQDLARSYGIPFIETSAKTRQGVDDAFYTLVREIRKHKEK
T2 sequence (P01116 1-169 isoform P01116-2): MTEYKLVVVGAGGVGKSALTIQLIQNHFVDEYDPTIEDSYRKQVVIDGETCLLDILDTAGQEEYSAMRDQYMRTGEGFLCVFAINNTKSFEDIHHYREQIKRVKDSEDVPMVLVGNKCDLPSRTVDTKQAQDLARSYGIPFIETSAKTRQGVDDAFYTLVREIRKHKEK

Row | SMILES | IC50 [1] [nM] | IC50 [2, 7] [nM] | IC50 [3, 8] [nM] | IC50 [3, 9] [nM] | IC50 [4, 10] [nM] | IC50 [5, 11] [nM] | IC50 [6] [nM] | IC50 ([2]; KRAS WT-GppNHp/RAF1 RBD HTRF) [nM] | IC50 [3, 12] [nM] | IC50 ([4]; KRAS G12V-GppNHp/RAF1 RBD HTRF) [nM] | IC50 ([5]; KRAS G12R-GppNHp/RAF1 RBD HTRF) [nM] | IC50 [3, 13] [nM]
1 | CCC(=O)N1C[C@@H](N(CC)c2nc(OC[C@@]34CCCN3C[C@H](F)C4)nc3c(F)c(-c4ccc(F)c5sc(N)c(C#N)c45)c(C(F)(F)F)cc23)C[C@H]1C [Compound 442] | – | – | – | – | – | – | – | 100 to 1000 | < 100 | 100 to 1000 | 100 to 1000 | –
2 | CCN(c1nc(OC[C@@H]2C[C@@H](OC)CN2C)nc2c(F)c(-c3ccc(F)c4sc(N)c(C#N)c34)c(C(F)(F)F)cc12)[C@H]1CCN(C(=O)C(C)C)C1 [Compound 706] | 1000 to 10000 | 100 to 1000 | < 100 | < 100 | 100 to 1000 | 100 to 1000 | 100 to 1000 | – | – | – | – | –
3 | CCN(c1nc(OC[C@@]23CCCN2C[C@H](F)C3)nc2c(F)c(-c3ccc(F)c4sc(N)c(C#N)c34)c(C(F)(F)F)cc12)[C@H]1CCN(C(=O)C(C)C)C1 [Compound 332] | 100 to 1000 | – | < 100 | – | – | – | 100 to 1000 | < 100 | – | 100 to 1000 | < 100 | < 100
4 | C[C@@H]1[C@H](N(C)c2nc(OC[C@@]34CCCN3C[C@H](F)C4)nc3c(F)c(-c4ccc(F)c5sc(N)c(C#N)c45)c(C(F)(F)F)cc23)CC(=O)N1C [Compound 440] | – | – | – | – | – | – | – | 100 to 1000 | < 100 | 100 to 1000 | 100 to 1000 | –
5 | CN(Cc1cccnc1N)c1nc(OC[C@@]23CCCN2C[C@H](F)C3)nc2c(F)c(-c3ccc(F)c4sc(N)c(C#N)c34)c(C(F)(F)F)cc12 [Compound 390] | – | – | – | – | – | – | – | 100 to 1000 | < 100 | < 100 | 100 to 1000 | –

The next lines start with the values.

Row | IC50 [1] [nM] | IC50 [2, 7] [nM] | IC50 [3, 8] [nM] | IC50 [3, 9] [nM] | IC50 [4, 10] [nM] | IC50 [5, 11] [nM] | IC50 [6] [nM] | IC50 ([2]; KRAS WT-GppNHp/RAF1 RBD HTRF) [nM] | IC50 [3, 12] [nM] | IC50 ([4]; KRAS G12V-GppNHp/RAF1 RBD HTRF) [nM] | IC50 ([5]; KRAS G12R-GppNHp/RAF1 RBD HTRF) [nM] | IC50 [3, 13] [nM] | SMILES
6 | ≤ 100 | < 100 | < 100 | < 100 | < 100 | < 100 | ≤ 100 | – | – | – | – | – | CCN(c1nc(OC[C@@]23CCCN2C[C@H](F)C3)nc2c(F)c(-c3ccc(F)c4sc(N)c(C#N)c34)c(C(F)(F)F)cc12)[C@H]1CCN(C(=O)O[C@@H]2CCOC2)C1 (atropisomer, axis not shown) [Compound 683]
7 | ≤ 100 | < 100 | < 100 | < 100 | < 100 | < 100 | ≤ 100 | – | – | – | – | – | CCN(c1nc(OC[C@@]23CCCN2C[C@H](F)C3)nc2c(F)c(-c3ccc(F)c4sc(N)c(C#N)c34)c(C(F)(F)F)cc12)[C@H]1CC(=O)N2CCC[C@@H]12 (atropisomer, axis not shown; (aS)) [Compound 697, 2-amino-4-((S)-4-(ethyl((1S,7aS)-3-oxohexahydro-1H-pyrrolizin-1-yl)amino)-8-fluoro-2-(((2R,7aS)-2-fluorotetrahydro-1H-pyrrolizin-7a(5H)-yl)methoxy)-6-(trifluoromethyl)quinazolin-7-yl)-7-fluorobenzo[b]thiophene-3-carbonitrile]
8 | ≤ 100 | < 100 | < 100 | < 100 | < 100 | < 100 | ≤ 100 | – | – | – | – | – | CCN(c1nc(OC[C@@]23CCCN2C[C@H](F)C3)nc2c(F)c(-c3ccc(F)c4sc(N)c(C#N)c34)c(C(F)(F)F)cc12)[C@H]1CCN(C(=O)N2CC(F)C2)C1 (atropisomer, axis not shown) [Compound 606]
9 | 100 to 1000 | < 100 | < 100 | < 100 | 100 to 1000 | < 100 | 100 to 1000 | – | – | – | – | – | CCN(c1nc(OC[C@]23CCCN2C[C@H](F)C3)nc2c(F)c(-c3ccc(F)c4sc(N)c(C#N)c34)c(C(F)(F)F)cc12)[C@H]1CCN(C(=O)C(C)C)C1 [Compound 705]
10 | 100 to 1000 | – | < 100 | – | – | – | 100 to 1000 | < 100 | – | < 100 | < 100 | < 100 | CCC(=O)N1CC[C@@H](N(C)c2nc(OC[C@@]34CCCN3C[C@H](F)C4)nc3c(F)c(-c4ccc(F)c5sc(N)c(C#N)c45)c(C(F)(F)F)cc23)[C@H]1C (atropisomer, axis not shown) [Compound 335]
11 | 100 to 1000 | – | < 100 | – | – | – | 100 to 1000 | 100 to 1000 | < 100 | 100 to 1000 | 100 to 1000 | – | N#Cc1c(N)sc2c(F)ccc(-c3c(C(F)(F)F)cc4c(N5C[C@H]6C[C@@H]5CO6)nc(OC[C@@]56CCCN5C[C@H](F)C6)nc4c3F)c12 (single isomer, unassigned) [Compound 287]
